{"source": "patent US8367864B2", "about": "“Dimeric double metal salts of (−)-hydroxycitric acid, methods of making and uses of same” (Glykon Technologies Group, LLC, priority 2006, dated 2013)", "key": {"[1]": {"system": "middle-aged rats fed a 30% fat diet", "settings": "cited from earlier work"}, "[2]": {"assay": "Alcohol solubility (1% wt in 50% v/v ethanol)", "assay_type": "physicochemical", "settings": "tested at 1% weight in 50% (v/v) ethanol solution"}, "[3]": {"settings": "kinetic study", "description": "This structure is like the soluble double metal HCA salts disclosed by Balasubramanyam et al., (U.S. Pat. No. 6,160,172, issued Dec. 12, 2000; U.S. Pat. No. 6,395,296, issued May 28, 2002)."}, "[4]": {"settings": "conditions that elevate de novo lipogenesis; cited from earlier work"}, "[5]": {"system": "human hepatoma cell line Hep G2", "settings": "cited from earlier work"}, "[6]": {"settings": "in vivo; cited from earlier work"}, "[7]": {"settings": "chronic administration; resting and exercising conditions; cited from earlier work"}}}
{"smiles": "O=C([O-])CC(O)(C(=O)[O-])C(O)C(=O)[O-].[K+].[K+].[K+]", "note": "(centres unmarked) [potassium HCA]", "values": [{"measurement": "fat as a percentage of body weight", "setting": "[1]", "value": "reducing"}, {"measurement": "protein as a percentage of body weight", "setting": "[1]", "value": "increased"}]}
{"smiles": "O=C(O)CC(O)(C(=O)O)C(O)C(=O)O", "note": "(centres unmarked) [K/Mg-HCA monomer]", "values": [{"measurement": "solubility", "setting": "physchem", "value": 250, "unit": "mg/mL"}, {"measurement": "Alcohol Solubility (50% v/v alcohol; 1% wt test)", "setting": "[2]", "value": 40, "unit": "%"}, {"measurement": "absorption compared to the dimer", "setting": "[3]", "value": "less-absorbed"}]}
{"smiles": "O=C(O)CC(O)(C(=O)O)C(O)C(=O)O", "note": "(single isomer, unassigned; (-)) [HCA, (−)-hydroxycitric acid]", "values": [{"measurement": "energy expenditure", "setting": "[4]", "value": "increased"}, {"measurement": "fat synthesis", "setting": "[4]", "value": "reduced"}, {"measurement": "incorporation of [1,5-14C]citrate into fatty acids and cholesterol", "setting": "[5]; 2.5 h and 18 h incubations, 0.5 mM or higher", "value": "strongly inhibited"}, {"measurement": "Cholesterol biosynthesis, of the control value", "setting": "[5]; incorporation of tritium from tritiated water", "value": 27, "unit": "%"}, {"measurement": "appetite and satiety", "setting": "[6]", "value": "promote appetite suppression and satiety"}, {"measurement": "respiratory exchange ratio", "setting": "[7]", "value": "significantly lower"}]}
